Experimental data from patent publication US20230183245A1, “IMIDAZO-PYRIMIDONE COMPOUNDS AS PESTICIDES” (BASF SE, priority 2020, published 2023).
Read-outs that look alike come from different tables or passages of the source.

How the values were obtained:
Assay type in all cases: in vivo
Heliothis virescens = test: Tobacco budworm (Heliothis virescens) microtiter diet test; conditions: 120 h, read-out: Egg and larval mortality in comparison with untreated controls
Description: (§1) If not otherwise specified, the test solutions are prepared as follows: The active compound is dissolved at the desired concentration in a mixture of 1:1 (vol:vol) distilled water: acteone. The test solution is prepared at the day of use. Test solutions are prepared in general at concentrations of 2500 ppm, 1415 ppm and 800 ppm (wt/vol).
(§2) For evaluating control of tobacco budworm (Heliothis virescens) the test unit consisted of 96-well-microtiter plates containing an insect diet and 15-25 H. virescens eggs. The compounds were formulated using a solution containing 75% v/v water and 25% v/v DMSO. Different concentrations of formulated compounds were sprayed onto the insect diet at 10 µl, using a custom built micro atomizer, at two replications. After application, microtiter plates were incubated at about 28 ± 1° C. and about 80 ± 5% relative humidity for 5 days. Egg and larval mortality was then visually assessed.

Nezara viridula = test: Green soldier stink bug (Nezara viridula) soybean pod spray test; conditions: 120 h, 5 days, late 3rd instar, read-out: Percent mortality in comparison with untreated controls
Description: as §1
The active compound is dissolved at the desired concentration in a mixture of 1:1 (vol:vol) distilled water: aceteone. Surfactant (Kinetic) is added at a rate of 0.01% (vol/vol).The test solution is prepared at the day of use. Soybean pods are placed in 90 × 50 mm glass Petri dishes lined with moistened filter paper and inoculated with ten late 3rd instar N. viridula. Using a hand atomizer, an approximately 2 ml solution is sprayed into each Petri dish. Treated set-up is kept at about 25-26° C. and relative humidity of about 65-70%. Percent mortality is recorded after 5 days.

Aedes aegypti = test: whole plant or invertebrate; conditions: 48 h, 2 days, freshly hatched larvae, read-out: Larval mortality in comparison with untreated controls
Description: as §1
For evaluating control of yellow fever mosquito (Aedes aegypti) the test unit consisted of 96-well-microtiter plates containing 200 µl of tap water per well and 5-15 freshly hatched A. aegypti larvae. The active compounds were formulated using a solution containing 75% (v/v) water and 25% (v/v) DMSO. Different concentrations of formulated compounds or mixtures were sprayed onto the […] at 2.5 µl, using a custom built micro atomizer, at two replications. After application, microtiter plates were incubated at 28 + 1° C., 80 + 5% RH for 2 days. Larval mortality was then visually assessed.

Anthonomus grandis = test: Boll weevil (Anthonomus grandis) microtiter diet test; conditions: 120 h, read-out: Egg and larval mortality in comparison with untreated controls
Description: as §1
as §2, with “boll weevil (Anthonomus grandis)” for “tobacco budworm (Heliothis virescens)”, “5-10 A. grandis” for “15-25 H. virescens”, “5” for “10”, “25” for “28”, “75” for “80”

Myzus persicae = test: Green peach aphid (Myzus persicae) systemic artificial diet test; conditions: 72 h, read-out: Aphid mortality in comparison with untreated controls
Description: as §1
For evaluating control of green peach aphid (Myzus persicae) through systemic means the test unit consisted of 96-well-microtiter plates containing liquid artificial diet under an artificial membrane. The compounds were formulated using a solution containing 75% v/v water and 25% v/v DMSO. Different concentrations of formulated compounds were pipetted into the aphid diet, using a custom built pipetter, at two replications. After application, 5 - 8 adult aphids were placed on the artificial membrane inside the microtiter plate wells. The aphids were then allowed to suck on the treated aphid diet and incubated at about 23 ± 1° C. and about 50 ± 5 % relative humidity for 3 days. Aphid mortality and fecundity was then visually assessed.

Megoura viciae = test: Vetch aphid (Megoura viciae) broad bean leaf disk test; conditions: foliar, 120 h, 5 days, adult aphids on treated leaf disks, read-out: Aphid mortality in comparison with untreated controls
Description: as §1
For evaluating control of vetch aphid (Megoura viciae) through contact or systemic means the test unit consisted of 24-well-microtiter plates containing broad bean leaf disks.
The compounds were formulated using a solution containing 75% v/v water and 25% v/v DMSO. Different concentrations of formulated compounds were sprayed onto the leaf disks at 2.5 µl, using a custom built micro atomizer, at two replications. After application, the leaf disks were air-dried and 5 - 8 adult aphids placed on the leaf disks inside the microtiter plate wells. The aphids were then allowed to suck on the treated leaf disks and incubated at about 23 ± 1° C. and about 50 ± 5% relative humidity for 5 days. Aphid mortality and fecundity was then visually assessed.

[1] = system: Trialeurodes vaporariorum; test: Greenhouse whitefly (Trialeurodes vaporariorum) egg plant leaf disk test; conditions: foliar, 144 h, 6 days, read-out: Mortality of hatched crawlers in comparison with untreated controls
Description: as §1
For evaluating control of Greenhouse Whitefly (Trialeurodes vaporariorum) the test unit consisted of 96-well-microtiter plates containing a leaf disk of egg plant leaf disk with white fly eggs. The compounds or mixtures were formulated using a solution containing 75% water and 25% DMSO. Different concentrations of formulated were sprayed onto the insect diet at 2.5 µl, using a custom built micro atomizer, at two replications. After application, microtiter plates were incubated at 23 ± 1° C., 65 ± 5% RH for 6 days. Mortality of hatched crawlers was then visually assessed.

[2] = 3 days, adult aphids on treated diet
[3] = 800 ppm, 3 days, adult aphids on treated diet

CCS(=O)(=O)c1cc(/C=N/OC)cnc1-c1cn2c(=O)n(C)c(C(F)(F)F)cc2n1 [Compound C-1]
> 75%: mortality at 2500 ppm (Heliothis virescens; 5 days) | mortality at 800 ppm (Nezara viridula) | mortality at 800 ppm (Aedes aegypti) | mortality at 2500 ppm (Anthonomus grandis; 5 days) | mortality at 2500 ppm (Myzus persicae; [2]) | mortality at 2500 ppm (Megoura viciae)

CCS(=O)(=O)c1cc(/C(C#N)=N/OCC#N)cnc1-c1cn2c(=O)n(C3CC3)c(C(F)(F)F)cc2n1 [Compound C-12]
> 75%: mortality at 800 ppm (Aedes aegypti) | mortality at 800 ppm (Anthonomus grandis; 800 ppm, 5 days) | mortality at 800 ppm (Myzus persicae; [3])

CCS(=O)(=O)c1cc(/C(C#N)=N/OCC(F)(F)F)cnc1-c1cn2c(=O)n(C3CC3)c(C(F)(F)F)cc2n1 [Compound C-10]
> 75%: mortality at 800 ppm (Heliothis virescens; 800 ppm, 5 days) | mortality at 800 ppm (Nezara viridula) | mortality at 800 ppm (Aedes aegypti) | mortality at 800 ppm (Anthonomus grandis; 800 ppm, 5 days) | mortality at 800 ppm (Myzus persicae; [3])

CCS(=O)(=O)c1cc(/C(C#N)=N/OC)cnc1-c1cn2c(=O)n(C3CC3)c(C(F)(F)F)cc2n1 [Compound C-9]
> 75%: mortality at 800 ppm (Heliothis virescens; 800 ppm, 5 days) | mortality at 800 ppm (Nezara viridula) | mortality at 800 ppm (Aedes aegypti) | mortality at 800 ppm (Anthonomus grandis; 800 ppm, 5 days) | mortality at 800 ppm (Myzus persicae; [3])

CCS(=O)(=O)c1cc(C(C)(C)C#N)cnc1-c1cn2c(=O)n(C3CC3)c(C(F)(F)F)cc2n1 [Compound C-4]
> 75%: mortality at 2500 ppm (Heliothis virescens; 5 days) | mortality at 800 ppm (Nezara viridula) | mortality at 800 ppm [1] | mortality at 2500 ppm [1] | mortality at 800 ppm (Aedes aegypti) | mortality at 2500 ppm (Anthonomus grandis; 5 days) | mortality at 800 ppm (Myzus persicae; [3]) | mortality at 2500 ppm (Myzus persicae; [2]) | mortality at 2500 ppm (Megoura viciae)

CCS(=O)(=O)c1cc(/C=N/O)cnc1-c1cn2c(=O)n(C)c(C(F)(F)F)cc2n1 [Compound C-2]
> 75%: mortality at 2500 ppm (Heliothis virescens; 5 days) | mortality at 2500 ppm (Anthonomus grandis; 5 days) | mortality at 2500 ppm (Myzus persicae; [2])

CCS(=O)(=O)c1cc(C(C)(C)C#N)cnc1-c1cn2c(=O)n(CC3CC3)c(C(F)(F)F)cc2n1 [Compound C-7]
> 75%: mortality at 800 ppm (Heliothis virescens; 800 ppm, 5 days) | mortality at 800 ppm (Nezara viridula) | mortality at 800 ppm (Aedes aegypti) | mortality at 800 ppm (Anthonomus grandis; 800 ppm, 5 days) | mortality at 800 ppm (Myzus persicae; [3])

CCS(=O)(=O)c1cc(C2(C#N)CC2)cnc1-c1cn2c(=O)n(C3CC3)c(C(F)(F)F)cc2n1 [Compound C-6, 1-[6-[6-cyclopropyl-5-oxo-7-(trifluoromethyl)imidazo[1,2-c]pyrimidin-2-yl]-5-ethylsulfonyl-3-pyridyl]cyclopropanecarbonitrile]
> 75%: mortality at 800 ppm (Heliothis virescens; 800 ppm, 5 days) | mortality at 800 ppm (Nezara viridula) | mortality at 800 ppm [1] | mortality at 800 ppm (Aedes aegypti) | mortality at 800 ppm (Anthonomus grandis; 800 ppm, 5 days)

CCS(=O)(=O)c1cc(/C=N/O)cnc1-c1cn2c(=O)n(C3CC3)c(C(F)(F)F)cc2n1 [Compound C-23, (3E)-6-[6-cyclopropyl-5-oxo-7-(trifluoromethyl)imidazo[1,2-c]pyrimidin-2-yl]-5-ethylsulfonyl-pyridine-3-carbaldehyde oxime]
> 75%: mortality at 800 ppm (Nezara viridula) | mortality at 800 ppm (Myzus persicae; [3])

CCO/N=C/c1cnc(-c2cn3c(=O)n(C4CC4)c(C(F)(F)F)cc3n2)c(S(=O)(=O)CC)c1 [Compound C-14]
> 75%: mortality at 800 ppm (Heliothis virescens; 800 ppm, 5 days) | mortality at 800 ppm (Nezara viridula) | mortality at 800 ppm (Aedes aegypti) | mortality at 800 ppm (Anthonomus grandis; 800 ppm, 5 days) | mortality at 800 ppm (Myzus persicae; [3])

CCS(=O)(=O)c1cc(/C=N/OCC(F)(F)F)cnc1-c1cn2c(=O)n(C)c(C(F)(F)F)cc2n1 [Compound C-3, 2-[3-ethylsulfonyl-5-[(E)-2,2,2-trifluoroethoxyiminomethyl]-2-pyridyl]-6-methyl-7-(trifluoromethyl)imidazo[1,2-c]pyrimidin-5-one]
> 75%: mortality at 2500 ppm (Heliothis virescens; 5 days) | mortality at 800 ppm (Nezara viridula) | mortality at 800 ppm (Aedes aegypti) | mortality at 2500 ppm (Anthonomus grandis; 5 days) | mortality at 2500 ppm (Myzus persicae; [2]) | mortality at 2500 ppm (Megoura viciae)

CCS(=O)(=O)c1cc(C(C)(C)C#N)cnc1-c1cn2c(=O)n(C)c(C(F)(F)F)cc2n1 [Compound C-5, 2-[5-ethylsulfonyl-6-[6-methyl-5-oxo-7-(trifluoromethyl)imidazo[1,2-c]pyrimidin-2-yl]-3-pyridyl]-2-methyl-propanenitrile]
> 75%: mortality at 2500 ppm (Heliothis virescens; 5 days) | mortality at 800 ppm (Nezara viridula) | mortality at 2500 ppm [1] | mortality at 2500 ppm (Anthonomus grandis; 5 days) | mortality at 2500 ppm (Myzus persicae; [2])

CCS(=O)(=O)c1cc(/C=N/OCC(F)(F)F)cnc1-c1cn2c(=O)n(C3CC3)c(C(F)(F)F)cc2n1 [Compound C-16]
> 75%: mortality at 800 ppm (Heliothis virescens; 800 ppm, 5 days) | mortality at 800 ppm [1] | mortality at 800 ppm (Anthonomus grandis; 800 ppm, 5 days) | mortality at 800 ppm (Myzus persicae; [3])

CCS(=O)(=O)c1cc(/C(C#N)=N/OCC2CC2)cnc1-c1cn2c(=O)n(C3CC3)c(C(F)(F)F)cc2n1 [Compound C-11]
> 75%: mortality at 800 ppm (Heliothis virescens; 800 ppm, 5 days) | mortality at 800 ppm (Nezara viridula) | mortality at 800 ppm [1] | mortality at 800 ppm (Aedes aegypti) | mortality at 800 ppm (Anthonomus grandis; 800 ppm, 5 days) | mortality at 800 ppm (Myzus persicae; [3])

CCS(=O)(=O)c1cc(/C=N/OC(C)C)cnc1-c1cn2c(=O)n(C3CC3)c(C(F)(F)F)cc2n1 [Compound C-15]
> 75%: mortality at 800 ppm (Heliothis virescens; 800 ppm, 5 days) | mortality at 800 ppm (Nezara viridula) | mortality at 800 ppm [1] | mortality at 800 ppm (Anthonomus grandis; 800 ppm, 5 days) | mortality at 800 ppm (Myzus persicae; [3])

CCS(=O)(=O)c1cc(/C(C#N)=N/O)cnc1-c1cn2c(=O)n(C3CC3)c(C(F)(F)F)cc2n1 [Compound C-8, (2Z)-2-[6-[6-cyclopropyl-5-oxo-7-(trifluoromethyl)imidazo[1,2-c]pyrimidin-2-yl]-5-ethylsulfonyl-3-pyridyl]-2-hydroxyimino-acetonitrile]
> 75%: mortality at 800 ppm (Myzus persicae; [3])

CCS(=O)(=O)c1cc(C2=NOC3(CCCC3)C2)cnc1-c1cn2c(=O)n(C3CC3)c(C(F)(F)F)cc2n1 [Compound C-13, 6-cyclopropyl-2-[3-ethylsulfonyl-5-(1-oxa-2-azaspiro[4.4]non-2-en-3-yl)-2-pyridyl]-7-(trifluoromethyl)imidazo[1,2-c]pyrimidin-5-one]
> 75%: mortality at 800 ppm (Heliothis virescens) | mortality at 800 ppm [1] | mortality at 800 ppm (Aedes aegypti) | mortality at 800 ppm (Anthonomus grandis) | mortality at 800 ppm (Myzus persicae)
